According to patent US20220170028A1, “NOVEL INTERLEUKIN-2 VARIANTS AND BIFUNCTIONAL FUSION MOLECULES THEREOF” (Cugene Inc, priority 2019, published 2022):

Experiments:
[1] = system: STAT5 phosphorylation in CD4+ Tconv cells; test: STAT5 phosphorylation in CD4+ Tconv cells, human PBMC assay by FACS; assay type: cell-based
Source text: Single amino acid substitutions were introduced to IL-2 at positions corresponding to amino acids interacting with receptor subunit(s) β or γ or βγ. These substitutions were aimed to reduce IL-2 signaling capacity through the intermediate affinity IL-2Rβγ complex and confer signaling specificity from the high affinity IL-2Rαβγ. IL-2 variants containing single amino acid substitutions were examined for their ability to differentially stimulate STAT5 phosphorylation in CD4 positive Treg and Tconv cells. STAT5 is known to be involved in the downstream signaling cascade upon IL-2 binding to the transmembrane IL-2 receptors. The phosphorylation of STAT5 in defined lymphocyte subpopulations was measured using fresh human peripheral blood mononuclear cells (PBMC) and the forkhead transcription factor FOXP3 was used to identify the Treg population in FACS analysis.
Briefly, human PBMC were isolated by Ficoll-Hypaque centrifugation from the buffy coat of a healthy donor. PBMC were starved in serum-free MACS buffer at 4° C. for 1 hour. 2×10^5 PBMC were then treated with serial dilutions of test compounds for 30 min at 37° C. Cells were fixed and permeabilized with Foxp3/Transcription Factor Staining Buffer Set (EBIO) by incubating with 1× Foxp3 fixation/permeabilization working solution for 30 minutes and washing with 1× permeabilization buffer. Cells were additionally fixed with Cytofix buffer and permeabilized with Perm Buffer III (BD Biosciences) and then washed. After blocking Fc receptors by adding human TruStain FcX (1:50 dilution), cells were stained with a mixture of anti-CD25-PE, anti-FOXP3-APC, anti-pSTAT5-FITC, and anti-CD4-PerCP-Cy5.5 antibodies at concentrations recommended by the manufacturer for 45 minutes at room temperature. Cells were collected by centrifugation, washed, resuspended in FACS buffer, and analyzed by flow cytometry. The flow cytometry data was gated into CD4+/Foxp3+/CD25^high and CD4+/Foxp3−/CD25^low groups for the Treg and CD4 conventional T cell subsets, respectively. Data are expressed as a percent of pStat5 positive cells in gated population.

[2] = system: CD4+ Tconv cells, CD8 Teff and NK cells; test: Dose-response pharmacodynamics, CD4+ Tconv, CD8 and NK cells in mice (Example 10); assay type: in vivo, mouse; details: single s.c. dose, Balb/C mice
Description: Following a single subcutaneous administration of vehicle (PBS) or P-0511 (1, 0.3, 0.1, or 0.03 mg/kg) to female Balb/C mice (n=5/group), peripheral blood was collected on day −2 as baseline, and post dose on days 3, 5, and 7. On day 7, mice were sacrificed, and spleens were harvested. Blood lymphocyte phenotyping, proliferation and expansion were measured by flow cytometry at each timepoint using fresh whole blood.

Substance: P-0511: IL-2 L19H/S125I/Q126E Fc fusion, SEQ ID NO: 213
- STAT5 phosphorylation activity in CD4+ Tconv cells (in words) [1]: nearly completely abolished
- percentages of CD4+ Tconv, CD8 Teff and NK cells over the total lymphocytes [2]: no statistically significant changes
